{"source": "patent US7919577B2", "about": "“Adrenocorticotropic hormone analogs and related methods” (Colorado Seminary, priority 2004, dated 2011)", "tested_on": "dexamethasone-suppressed male FVB/N mice", "assay": "in vivo Serum Corticosteroid Inhibition Assay (Example 2)", "set-up": "species or system mouse", "conditions": "for serum corticosterone at 180 minutes: blood one hour later; for reduction in serum corticosterone levels: ACTH alone normalized to 100%, FIG. 2; for corticosterone induction as percent of that of wildtype ACTH: 1 hour after last peptide injection", "method": "The in vivo Serum Corticosteroid Inhibition Assay can include sequential administration of the test compound and the corticosteroid-producing compound by the following steps: first, an agent to suppress endogenous ACTH production was administered to a mouse subject, such as an intraperitoneal injection of dexamethasone; second, after waiting a suitable period of time for suppression of endogenous ACTH production (e.g., 1.5-2.0 hours), a test compound was administered to the mouse by a suitable method, such as intraperitoneal injection; third, after waiting a suitable period of time (e.g., 1 hour) for action of the test compound, a compound with corticosteroid-producing activity can be administered to the mouse by a suitable method, such as intraperitoneal injection; and fourth, after waiting a suitable period of time for the biological activity of both administered compounds to occur (e.g., 1 hour), a blood sample was taken from the subject and the level of serum corticosterone was determined by a suitable method, such as a competitive radioimmunoassay using ^125I RIA kit (ICN, Costa Mesa, Calif.). Optionally, steps two and three can be reversed (administering the corticosteroid-producing compound first, followed by administration of the test compound). The in vivo Serum Corticosteroid Inhibition Assay can also include co-administration of the test compound and the corticosteroid-producing compound by the following steps: first, an agent to suppress endogenous ACTH production was administered to a mouse subject, such as an intraperitoneal injection of dexamethasone; second, after waiting a suitable period of time for suppression of endogenous ACTH production (e.g., 1.5-2.0 hours), the corticosteroid-producing compound and a test compound were co-administered to the mouse by a suitable method, such as intraperitoneal injection; and third, after waiting a suitable period of time for the biological activity of both administered compounds to occur (e.g., 1 hour), a blood sample was taken from the subject and the level of serum corticosterone was determined by a suitable method, such as a competitive radioimmunoassay using ^125I RIA kit (ICN, Costa Mesa, Calif.). Also, in some embodiments, the first step in any in vivo Serum Corticosteroid Inhibition Assay can be replaced by a measurement of the initial endogenous corticosteroid or corticosteroid level in the blood of the subject in the manner of step four, instead of administering the agent to suppress ACTH production. Example 2 describes murine in vivo Serum Corticosteroid Inhibition Assays in detail.\nA series of separate in vivo Serum Corticosteroid Inhibition Assays were performed to identify ACTH analogs that inhibit ACTH adrenal hormone production in vivo. The serum corticosterone levels of dexamethasone-suppressed mice were measured as described in Example 2 after administration of (1) ACTH (corticosteroid-producing compound), (2) an ACTH analog (test compound) followed by subsequent administration of ACTH, (3) a combination of ACTH and the ACTH analog and (4) the ACTH analog alone.\nThe in vivo Serum Corticosteroid Inhibition Assay was performed according the following method. The ACTH analog test compounds, such as those showing low activities in Example 1, were tested for their abilities to inhibit adrenal hormone production induced by unmodified ACTH.\nFirst, two to three month-old male FVB/N mice from our colony, five per group, were injected intraperitoneally with dexamethasone (0.4 mg/0.1 ml PBS per mouse; Sigma, St. Louis, Mo.) to suppress their endogenous ACTH production.\nSecond, ninety to one hundred twenty minutes later, animals were injected subcutaneously between the shoulder blades with wild type ACTH and/or test ACTH analog peptides (1 μg/0.1 mL PBS/0.5% BSA) or with vehicle alone (0.1 mL PBS/0.5% BSA). […]", "note": "No end group written: not given here.", "data": [{"substance": "N-Ser^1-Tyr-Ser-Met-Glu^5-His-Phe-Arg-Trp-Gly^10-Lys-Pro-Val-Gly-Lys^15-Arg-Ala-Ala-Trp-Val^20-Lys-Val-Tyr-Pro-Ac (SYSMEHFRWGKPVGKRAAWVKVYP; not fully specified; printed as N-Ser1-Tyr-Ser-Met-Glu5-His-Phe-Arg-Trp-Gly10-Lys-Pro-Val-Gly-Lys15-Arg-Ala-Ala-Trp-Val20-Lys-Val-Tyr-Pro-Ac) [AT814]", "values": [{"measurement": "serum corticosterone at 180 minutes", "setting": "ACTH analog alone 120 minutes after dexamethasone (AT), listed as (KKRRP15-19KRAAW) mACTH(1-24)", "value": "about 7±7 ng/mL"}, {"measurement": "serum corticosterone at 180 minutes", "setting": "ACTH analog alone 120 minutes after dexamethasone (AT), listed as (KKRRP15-19KRAAW)mACTH(1-24)", "value": "7 ± 7", "unit": "ng/mL"}, {"measurement": "serum corticosterone at 180 minutes", "setting": "ACTH analog at 90 minutes, mACTH(1-24) at 120 minutes after dexamethasone (AT90-ACTH120), listed as (KKRRP15-19KRAAW) mACTH(1-24)", "value": "175 ± 27", "unit": "ng/mL"}, {"measurement": "serum corticosterone at 180 minutes", "setting": "ACTH analog at 90 minutes, mACTH(1-24) at 120 minutes after dexamethasone (AT90-ACTH120), listed as (KKRRP15-19KRAWW)mACTH(1-24)", "value": "175 ± 27", "unit": "ng/mL"}, {"measurement": "serum corticosterone at 180 minutes", "setting": "ACTH analog together with mACTH(1-24) at 120 minutes after dexamethasone ((AT + ACTH)120)", "value": "51 ± 8", "unit": "ng/mL"}, {"measurement": "serum corticosterone at 180 minutes", "setting": "ACTH analog together with mACTH(1-24) at 120 minutes after dexamethasone ((AT + ACTH)120), listed as (KKRRP15-19KRAAW)mACTH(1-24)", "value": "51 ± 8", "unit": "ng/mL"}, {"measurement": "reduction in serum corticosterone levels", "setting": "analog 30 minutes before ACTH", "value": "~65", "unit": "%"}, {"measurement": "reduction in serum corticosterone levels", "setting": "analog concurrently with ACTH", "value": "~90", "unit": "%"}, {"measurement": "corticosterone induction as percent of that of wildtype ACTH", "setting": "applied 30 minutes before the ACTH injection", "value": 35, "unit": "%"}, {"measurement": "corticosterone induction as percent of that of wildtype ACTH", "setting": "applied at the same time as the ACTH injection", "value": 10, "unit": "%"}]}]}
